Experimental data taken from ChEMBL document CHEMBL1201862, “PubChem BioAssay data set” (2004).
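The compound was tested at five concentrations on cells cultured in 96-well plates, with a 48-hour exposure period. GI50: concentration for 50% inhibition of growth.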 Activity calls are given as the source filed them. No stated cut-off is given here; in the data, active = GI50 up to about 1.1 µM and inactive = higher.

Tests used:
Test in all cases: NCI-60 cell line screen, 48 h
[1] = test system: M14
[2] = test system: CAKI-1
[3] = test system: OVCAR-3
[4] = test system: MOLT-4
[5] = test system: U-251
[6] = test system: HL-60
[7] = test system: SK-MEL-28
[8] = test system: UO-31
[9] = test system: SN12C
[10] = test system: SNB-19
[11] = test system: LOX IMVI
[12] = test system: SF-268
[13] = test system: SK-MEL-2
[14] = test system: RPMI-8226
[15] = test system: SF-295
[16] = test system: NCI-H226
[17] = test system: HCC 2998
[18] = test system: HT-29

Measured: GI50

O=C1c2ccccc2C(=O)N1CCN(CCN1C(=O)c2ccccc2C1=O)Cc1ccccc1
inactive: [1] > 100 µM | [2] > 100 µM | [3] > 100 µM | [4] > 100 µM | [5] > 100 µM | [6] > 100 µM | [7] > 100 µM | [8] > 100 µM | [9] > 100 µM | [10] > 100 µM | [11] > 100 µM | [12] > 100 µM | [13] > 100 µM | [14] > 100 µM | [15] > 100 µM

COc1ccc2ccccc2c1C1OC(=O)c2ccccc21 (stereo not given)
inactive: [1] > 100 µM | [2] > 100 µM | [3] > 100 µM | [4] 44.2 µM | [5] > 100 µM | [16] > 100 µM | [17] > 100 µM | [6] 44.3 µM | [8] 68.2 µM | [9] > 100 µM | [10] > 100 µM | [11] > 100 µM | [12] > 100 µM | [14] > 100 µM | [15] 56.2 µM | [18] > 100 µM

CS(=O)(=O)CC1=Nc2nnc(CCCCCCCc3nnc4n3C(=O)C(CS(C)(=O)=O)=N4)n2C1=O
inactive: [1] > 100 µM | [2] > 100 µM | [3] > 100 µM | [4] > 100 µM | [5] > 100 µM | [16] > 100 µM | [17] > 100 µM | [6] > 100 µM | [7] > 100 µM | [8] > 100 µM | [9] > 100 µM | [10] > 100 µM | [11] > 100 µM | [12] > 100 µM | [14] > 100 µM | [15] > 100 µM | [18] > 100 µM

Cc1nnc2n1N=C(c1ccccc1)C(c1ccccc1)S2 (stereo not given)
inactive: [1] 16.3 µM | [2] 64.9 µM | [3] 36.9 µM | [4] 34.1 µM | [5] 23.1 µM | [17] 34.8 µM | [6] 24.5 µM | [8] 51.3 µM | [9] 59.6 µM | [10] 46.3 µM | [11] 45.2 µM | [12] 44.9 µM | [13] 29.9 µM | [14] 43.6 µM | [15] 62.4 µM | [18] 34.8 µM

Cc1ccccc1NC(=O)C(=O)CC(=O)c1c(C)[n+]([O-])c2ccccc2[n+]1[O-]
inactive: [1] > 100 µM | [2] > 100 µM | [3] > 100 µM | [5] > 100 µM | [16] > 100 µM | [17] > 100 µM | [7] > 100 µM | [8] > 100 µM | [9] > 100 µM | [10] > 100 µM | [12] > 100 µM | [13] > 100 µM | [14] > 100 µM | [15] > 100 µM | [18] > 100 µM

CC(=O)Nc1ccc(/C=N\N2C(=O)c3ccccc3C2=O)cc1
inactive: [1] > 100 µM | [2] > 100 µM | [3] > 100 µM | [4] > 100 µM | [16] > 100 µM | [17] > 100 µM | [6] > 100 µM | [7] > 100 µM | [8] > 100 µM | [9] > 100 µM | [10] > 100 µM | [11] > 100 µM | [12] > 100 µM | [13] > 100 µM | [14] > 100 µM | [15] > 100 µM | [18] > 100 µM

Cc1cccc(NC(=O)/C(=N\NC(C)(C)C)C2NC(=S)NC2=O)c1C (stereo not given)
inactive: [1] > 100 µM | [2] 15.4 µM | [3] > 100 µM | [4] > 100 µM | [5] > 100 µM | [17] > 100 µM | [6] > 100 µM | [8] > 100 µM | [10] > 100 µM | [13] > 100 µM | [14] > 100 µM | [15] > 100 µM

CC1=NN(C(=O)Cc2ccccc2)C(=O)/C1=C/c1c(O)ccc2ccccc12
inactive: [1] 10 µM | [2] 92.5 µM | [3] 48.6 µM | [4] 22.8 µM | [16] 27 µM | [17] > 100 µM | [6] 49.2 µM | [7] 40.7 µM | [8] 22.2 µM | [9] 34.1 µM | [10] 50.8 µM | [11] 27.5 µM | [12] 55.5 µM | [13] 1.7 µM | [14] 33.2 µM | [15] 34.1 µM | [18] 57.3 µM
